Assay results: patent publication US10471082B2, “Flavivirus protease inhibitors” (priority 2012, dated 2019)

Columns and labels:
DENV-2 protease = biological target: T1, DENV-2 protease (Dengue virus type 2, UniProt P14340); assay: In vitro protease assay, DENV-2 NS2B-NS3pro; assay type: biochemical, Dengue virus serotype 2; details: for inhibition at 10 µM: 10 μM inhibitor, read-out: % Inhib. DENV 2 Protease at 10 μM; for inhibition at 25 µM: 25 μM inhibitor, read-out: % Inhib. DENV 2 Protease at 25 μM; for IC50: substrate Bz-Nle-Lys-Arg-Arg-AMC, triplicate, read-out: IC50 DENV2
T1 construct: expression plasmids pQE30-NS2BH(QR)-NS3pro and WNV clone 107, respectively; made in house; host or cells: E. coli TOP10F' cells
T1 sequence (P14340 1476-1653): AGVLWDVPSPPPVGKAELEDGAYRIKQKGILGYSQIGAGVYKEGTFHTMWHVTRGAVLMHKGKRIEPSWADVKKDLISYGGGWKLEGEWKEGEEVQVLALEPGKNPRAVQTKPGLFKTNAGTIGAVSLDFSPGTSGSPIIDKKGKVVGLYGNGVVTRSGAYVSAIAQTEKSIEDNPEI
Procedure: (§1) DENV-2 and WNV proteases were expressed from 2 L cultures of TOP10F′ cells (Invitrogen; Carlsbad, Calif.) transformed with expression plasmids pQE30-NS2BH(QR)-NS3pro and WNV clone 107, respectively. Cultures were grown in LB medium supplemented with ampicillin (100 μg/mL) and 0.1% glucose at 37° C. until the OD600 reached 0.6-0.7. The medium was then replaced with fresh LB-ampicillin with 1 mM IPTG. Expression was done at 20° C. for 16 h. Cells were then pelleted and either frozen or used immediately for purification using a Talon metal affinity resin (Clontech; Mountain View, Calif.).
(§2) A reaction mixture was prepared containing 200 mM Tris pH 9.5, 30% glycerol, 0.1% CHAPS detergent (to prevent non-specific aggregation of compounds), 50 nM DENV2QRpro enzyme and 10 μM Bz-Nle-Lys-Arg-Arg-AMC in each 30 μL reaction in duplicate 384-well plates. Aprotinin (2 μM) was used as a positive control. Compounds which inhibited the cleavage of the substrate by at least 50% were considered as positive hits. From the list of positive compounds, the highest scoring hits were selected for further analysis. […] Out of the 29 compounds, only 22 dissolved in DMSO at 5 mM. The activities of the 22 compounds were tested against DENV-2 and WNV proteases at 10 and 25 μM of the inhibitor concentration. […] A control containing only 2% DMSO and the substrate was used to achieve the minimum value of relative fluorescence units (RFU) for background subtraction. Compounds that reduced the protease activity by ≥70% were selected for further analysis.
(§3) Compound I, Compound II, Compound III, Compound IV, Compound V, Compound VI, and Compound VII were analyzed by in vitro protease assays. The compounds were tested for DENV-2 and WNV protease inhibition activity. All assays were done in triplicate in black 96-well plates. Protease activity experiments were performed in vitro using purified viral protease NS2B-N53-pro from DENV-2 or WNV. The reaction mixture of 100 μL/well contained 200 mM Tris pH 9.5, 30% glycerol, 27 nM WNV, 2% DMSO and fluorogenic tetra-peptide substrate Bz-Nle-Lys-Arg-Arg-AMC at concentrations that varied (0.05, 0.1, 0.5, 1, 2, 5, 10, and 25 μM). The percent activities after 30 min versus inhibitor concentration were plotted in GraphPad Prism v5.04 using the four-parameter nonlinear regression (Hill slope method).
(§4) In all assays, the inhibitor-enzyme complex was allowed to form by pre-incubation for 15 min at room temperature (RT) before addition of the substrate. After 5 min incubation, reactions were monitored by the release of free AMC, every 1.5 min for 30 min. The fluorescence emission was recorded at 465 nm following excitation at 385 nm using the Spectra Max Gemini EM (Molecular Devices; Silicon Valley, Calif.). The relative fluorescence units (RFU) were converted to absolute AMC product concentrations using Excel, where the data were transformed using the slope from the linear regression of the AMC calibration curve generated from the fluorescence values versus micromolar (μM) concentrations of free AMC. RFUs, obtained in a standard assay in the absence of inhibitors, were taken as 100% protease activity (or 0% inhibition), the background value (no protease) as 0% activity (or 100% inhibition). Kinetic values were determined using Microsoft Excel and GraphPad Prism 5 (La Jolla, Calif.).

WNV protease = biological target: T2, WNV protease (West Nile virus, UniProt Q9Q6P4); assay: In vitro protease assay, WNV NS2B-NS3pro; assay type: biochemical; details: for inhibition at 10 µM: read-out: % Inhib. WNV Protease at 10 μM; for inhibition at 25 µM: read-out: % Inhib. WNV Protease at 25 μM
T2 construct: purified viral protease NS2B-N53-pro from DENV-2 or WNV; made in house; host or cells: E. coli TOP10F' cells
T2 sequence (Q9Q6P4 1506-1683): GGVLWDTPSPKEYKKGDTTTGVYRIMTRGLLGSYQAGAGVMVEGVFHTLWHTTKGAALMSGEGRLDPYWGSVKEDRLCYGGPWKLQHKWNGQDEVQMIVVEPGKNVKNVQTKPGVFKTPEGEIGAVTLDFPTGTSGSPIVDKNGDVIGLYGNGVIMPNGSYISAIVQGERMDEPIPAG
T2 sequence (Q9Q6P4 1375-1505): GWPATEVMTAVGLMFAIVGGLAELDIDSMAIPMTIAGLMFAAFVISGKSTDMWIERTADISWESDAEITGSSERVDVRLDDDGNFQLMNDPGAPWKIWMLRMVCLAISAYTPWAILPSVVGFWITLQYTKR
Procedure: as §1, §2, §3, §4

Dengue virus = assay: Plaque assay for anti-dengue viral activity; assay type: cell-based; details: for EC50: Dengue virus, read-out: EC50 in virus replication; for virus titer: BHK 21 cells, MOI 1, 48 h, no-treatment 2×10^5
Description: The efficacy of the compounds was also examined in cell-based assays performed in mammalian cells. Mammalian cells are the host for replication of the virus; a compound added to the growth medium of the mammalian cell in which a replicon RNA or dengue virus is replicating, the compound of interest could permeate the cell and interfere with the replication process. If there is a quantitative read-out of replication efficiency, the potency of the inhibitor compound could be evaluated in a quantifiable manner. There are two types of quantifiable assays available both employing mammalian cells; the first is the Baby Hamster Kidney (BHK) or monkey kidney (Vero) cells harboring DENV-2 or WNV replicon RNA, respectively, in a continuously replicating state and these are “stable replicon-expressing” cells. The second assay is infectivity assays in which mammalian cells are infected with DENV and the compound of interest is added at various concentrations and incubated. The inhibition of infectivity of the virus by the compound is measured by the extent of reduction of the titer of virus determined by plaque assay.
BHK 21 cells (1×10^5) were plated onto each well of 12 well-cell culture plate. […] One hour later, the Dengue virus was added (MOI:1). After an additional 48 hours, the supernatant was collected and tested by the plaque assay.
LLC-MK2 cells were plated at 2.5×10^5 cells per well in 6-well plates containing 2 ml culture medium and incubated overnight. Serially diluted supernatants from BHK21 cells treated with compounds at different concentrations as described above were incubated with cells in paired wells of six-well plates for 2 h. Cells were overlaid with 1× media containing 0.5% Sea-Kem GTG agarose (FMC Bioproducts; Philadelphia, Pa.) and were incubated for 7 days at 37° C. and visualized by staining with 0.01% neutral red solution overnight.

[1] = test system: WNV replicon-expressing Vero cells; assay: WNV replicon assay (Renilla luciferase); assay type: cell-based; details: West Nile virus, 24 h
Description: (§5) The efficacy of the compounds was also examined in cell-based assays performed in mammalian cells. Mammalian cells are the host for replication of the virus; a compound added to the growth medium of the mammalian cell in which a replicon RNA or dengue virus is replicating, the compound of interest could permeate the cell and interfere with the replication process. If there is a quantitative read-out of replication efficiency, the potency of the inhibitor compound could be evaluated in a quantifiable manner. There are two types of quantifiable assays available both employing mammalian cells; the first is the Baby Hamster Kidney (BHK) or monkey kidney (Vero) cells harboring DENV-2 or WNV replicon RNA, respectively, in a continuously replicating state and these are “stable replicon-expressing” cells. […] The inhibition of infectivity of the virus by the compound is measured by the extent of reduction of the titer of virus determined by plaque assay.
(§6) Both drug efficacy and cytotoxicity were measured using the same experimental plate. […] Cells were then washed with PBS and the luminescence signal from Renilla luciferase activity was read using the Renilla luciferase assay kit (Promega Corp; Fitchburg, Wis.) using a luminometer (Berthold Technologies, Inc.; Oak Ridge, Tenn.). […] The EC50 and CC50 values of selected compounds were calculated similar to IC50s using GraphPad Prism v5. […]

[2] = Cell viability (CellTiter Glo) in BHK21-DENV2 cells; assay type: cell-based; details: hamster, ATP production
Procedure: (§7) Both drug efficacy and cytotoxicity were measured using the same experimental plate. Prior to compound treatment, BHK21-DENV2 or Vero-WNV cells at […] were plated in 96-well plates with each well containing 10^4 cells. After 24 h incubation, the medium was replaced with 100 μL fresh medium containing different compound concentrations (0.5, 1, 2, 5, 10, and 25 μM) in triplicate wells. Cells were incubated again for 24 h. Cells were then washed with PBS and the luminescence signal from Renilla luciferase activity was read using the Renilla luciferase assay kit (Promega Corp; Fitchburg, Wis.) using a luminometer (Berthold Technologies, Inc.; Oak Ridge, Tenn.). Cell viability (CC50) was measured as amount of ATP production in viable (live) cells using a chemiluminescence detection method (CellTiter Glo kit from Promega Corp) using the Model LB960 luminometer (Berthold Technologies). The EC50 and CC50 values of selected compounds were calculated similar to IC50s using GraphPad Prism v5. Experiments were done in duplicates.
Following a similar protocol, the EC50 and CC50 values of Compounds III and V for inhibition of DENV2 replicon-expressing BHK21 cells and cell viability of those cells treated with Compounds III and V were determined.

DENV-4 protease = DENV-4 protease (Dengue virus type 4, UniProt P09866); assay: DENV-4 protease inhibition; assay type: biochemical, Dengue virus serotype 4
DENV-4 protease, sequence (P09866 1475-1652): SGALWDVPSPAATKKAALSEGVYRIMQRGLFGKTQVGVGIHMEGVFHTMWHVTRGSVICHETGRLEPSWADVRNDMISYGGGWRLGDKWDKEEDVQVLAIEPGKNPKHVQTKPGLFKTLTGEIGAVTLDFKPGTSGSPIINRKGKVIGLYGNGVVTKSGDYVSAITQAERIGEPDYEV
DENV-4 protease, sequence (P09866 1393-1439): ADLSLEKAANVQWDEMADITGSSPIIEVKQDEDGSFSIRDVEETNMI

DENV-1 protease = DENV-1 protease (Dengue virus type 1, UniProt P17763); assay: DENV-1 protease inhibition; assay type: biochemical, Dengue virus serotype 1
DENV-1 protease, sequence (P17763 1394-1440): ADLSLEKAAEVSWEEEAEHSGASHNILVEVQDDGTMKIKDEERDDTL
DENV-1 protease, sequence (P17763 1476-1653): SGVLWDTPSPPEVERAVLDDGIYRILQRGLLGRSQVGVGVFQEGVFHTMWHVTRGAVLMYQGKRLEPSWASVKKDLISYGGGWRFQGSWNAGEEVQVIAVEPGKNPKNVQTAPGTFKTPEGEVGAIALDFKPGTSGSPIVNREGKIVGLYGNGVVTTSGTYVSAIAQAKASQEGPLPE

DENV-3 protease = DENV-3 protease (Dengue virus type 3, UniProt P27915); assay: DENV-3 protease inhibition; assay type: biochemical, Dengue virus serotype 3
DENV-3 protease, sequence (P27915 1474-1651): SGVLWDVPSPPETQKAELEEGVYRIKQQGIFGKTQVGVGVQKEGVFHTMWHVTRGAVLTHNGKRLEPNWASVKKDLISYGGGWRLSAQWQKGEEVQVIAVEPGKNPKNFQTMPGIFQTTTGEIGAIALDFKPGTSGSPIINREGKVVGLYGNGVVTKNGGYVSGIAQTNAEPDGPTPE
DENV-3 protease, sequence (P27915 1392-1438): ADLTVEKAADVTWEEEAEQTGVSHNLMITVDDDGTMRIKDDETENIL

[3] = Cell viability (CellTiter Glo) in Vero-WNV cells; assay type: cell-based; details: monkey, ATP production
Procedure: as §7

[4] = test system: DENV2 replicon-expressing BHK21 cells; assay: DENV2 replicon assay (Renilla luciferase); assay type: cell-based; details: Dengue virus, DENV2, BHK-21
Description: as §5, §6

## O=c1c(Oc2ccccc2)c(C(F)(F)F)oc2c(O)c(O)ccc12 [Compound IV]
DENV-2 protease
  inhibition at 10 µM: 63%
  inhibition at 25 µM: 82%
  IC50: 8.5 µM
WNV protease
  IC50: 6.7 µM
  inhibition at 10 µM: 71%
  inhibition at 25 µM: 95%
Dengue virus
  EC50: < 20 µM

## CCOC(=O)c1oc2c(O)c(O)ccc2c(=O)c1-c1cnn(-c2ccccc2)c1 [Compound V]
DENV-2 protease
  inhibition at 10 µM: 75%
  inhibition at 25 µM: 86%
  IC50: 4.8 µM
[1]
  EC50: 9.7 µM
[2]
  CC50 at 24 h: 202 µM
WNV protease
  IC50: 4.3 µM
  inhibition at 10 µM: 75%
  inhibition at 25 µM: 95%
DENV-4 protease
  IC50: 5.32 ± 0.6 µM
DENV-1 protease
  IC50: 6.4 ± 1.2 µM
DENV-3 protease
  IC50: 5 ± 1.4 µM
[3]
  CC50 at 24 h: 168 µM
[4]
  EC50: 11.7 µM

## Cc1ccc(C2=NC(=O)/C(=C/c3cc(O)c(O)c(Br)c3)S2)cc1 [Compound III]
DENV-2 protease
  inhibition at 10 µM: 96%
  inhibition at 25 µM: 94%
  IC50: 3.4 µM
[1]
  EC50: 3.7 µM
[2]
  CC50 at 24 h: 407 µM
WNV protease
  IC50: 1.3 µM
  inhibition at 10 µM: 98%
  inhibition at 25 µM: 98%
DENV-4 protease
  IC50: 3.92 ± 0.05 µM
DENV-1 protease
  IC50: 5.99 ± 1.4 µM
DENV-3 protease
  IC50: 4.8 ± 1.1 µM
[3]
  CC50 at 24 h: 130 µM
[4]
  EC50: 7.2 µM
Dengue virus; 10 μM compound
  fold reduction of virus titer: 3.3 fold
  virus titer: 6×10^4 PFU/ml
Dengue virus; 15 μM compound
  fold reduction of virus titer: 5 fold
  virus titer: 4×10^4 PFU/ml
Dengue virus; 20 μM compound
  fold reduction of virus titer: 100 fold
  virus titer: 2×10^3 PFU/ml
Dengue virus
  EC50: < 10 µM

## Cc1ccc(C(=O)c2cc(O)c(O)c([N+](=O)[O-])c2)cc1 [Compound VI, Tolcapone, reference compound]
DENV-2 protease
  inhibition at 10 µM: 90%
  inhibition at 25 µM: 92%
  IC50: 0.758 µM
WNV protease
  IC50: 0.68 µM
  inhibition at 10 µM: 99%
  inhibition at 25 µM: 67%
Dengue virus; 5 μM compound
  fold reduction of virus titer: greater than 100 fold
Dengue virus
  EC50: < 5 µM

## Cc1sc2nc(SCC(=O)c3ccc(O)c(O)c3)[nH]c(=O)c2c1C [Compound II]
DENV-2 protease
  inhibition at 10 µM: 57%
  inhibition at 25 µM: 92%
  IC50: 8.8 µM
WNV protease
  IC50: 9.7 µM
  inhibition at 10 µM: 45%
  inhibition at 25 µM: 92%
Dengue virus; 20 μM compound
  inhibition of the virus titer: did not show a significant inhibition

## O=C(OC[C@H]1OC(OC(=O)c2cc(O)c(O)c(OC(=O)c3cc(O)c(O)c(O)c3)c2)C(OC(=O)c2cc(O)c(O)c(OC(=O)c3cc(O)c(O)c(O)c3)c2)[C@@H](OC(=O)c2cc(O)c(O)c(OC(=O)c3cc(O)c(O)c(O)c3)c2)C1OC(=O)c1cc(O)c(O)c(OC(=O)c2cc(O)c(O)c(O)c2)c1)c1cc(O)c(O)c(OC(=O)c2cc(O)c(O)c(O)c2)c1 (some centres unmarked) [Compound VII, Tannic acid, reference compound]
DENV-2 protease
  inhibition at 10 µM: 99%
  inhibition at 25 µM: 101%
  IC50: 0.768 µM
WNV protease
  IC50: 0.312 µM
  inhibition at 10 µM: 98%
  inhibition at 25 µM: 96%
Dengue virus
  EC50: < 5 µM

## COCc1cc(C)nc(SCC(=O)c2ccc(O)c(O)c2)c1C#N [Compound I]
DENV-2 protease
  inhibition at 10 µM: 51%
  inhibition at 25 µM: 89%
  IC50: 10.5 µM
WNV protease
  IC50: 9 µM
  inhibition at 10 µM: 54%
  inhibition at 25 µM: 95%
